Among the data in patent US20260053834A1, “COVALENT MODIFIERS OF AKT1 AND USES THEREOF” (Terremoto Biosciences, Inc., priority 2023, published 2026) are IC50 values, retold here.

Assay [1] concerns LAPC4 prostate cancer cells, which express the AKT1 E17K allele. As to the kind of experiment: Antiproliferative effects in LAPC4 cells (CellTiter Glo, 72 h). It counts as cell-based. The following applies: read-out: LAPC4 proliferation IC50: GeoMean IC50. Here is the method: Antiproliferative effects in LAPC4 cells. LAPC4 prostate cancer cells (Klein, K. A. et al. Nat Med 1997, 3, 402-408), which express the AKT1 E17K allele, were grown in IMDM media (Hyclone) supplemented with 12% FBS+1% P/S. To assess compound effects on growth, 1,000 cells/well were seeded in 384 well assay plates, incubated with compound dilutions dissolved in DMSO. After 72 h, intracellular ATP content was assessed with CellTiter Glo reagent (Promega) according to the manufacturer's instructions. IC50 values were calculated by fitting luminescence values to a log(inhibitor) vs. response Hill equation.
On the technique in general: ATP-based viability assays read luminescence as a measure of living cells.

In the next assay the target is T1, AKT2 (Homo sapiens, UniProt P31751).
T1 construct: expressed in transfected cells; host or cells: HEK293
As to the kind of experiment: Live cell target engagement by NanoBRET competitive probe displacement, AKT2. It counts as binding. As to conditions: transfected HEK293 cells, 2 h at 37° C., read-out: AKT2 IC50: GeoMean IC50. Here is the method: (§1) Determining live cell AKT1 E17K, AKT1 WT, and AKT2 target engagement by NanoBRET competitive probe displacement. Live cell target engagement assays were performed as described (Vasta, J. D. et al. Cell Chem Biol 2018, 25(11), 206-214). Briefly, HEK293 cells were transfected with plasmids encoding kinase-NanoLuciferase fusion proteins overnight. Cells were then treated with serial dilutions of compound and an ˜EC50 concentration of fluorescently-tagged ATP-competitive tracer (Promega). After incubation for 2 h at 37° C., luciferase substrate and extracellular luciferase inhibitor were added to all wells, and luminescent intensity at 460 nm and 600 nm were measured on a multimode plate-reader. The ratio of E600/E460 was calculated to give the tracer engagement signal (BRET). IC50 values were calculated by fitting BRET values to a log(inhibitor) vs. response Hill equation.
For orientation: BRET reads energy transfer from a luciferase to a nearby fluorophore.

In a further assay the target is T2, AKT1 WT (Homo sapiens, UniProt P31749).
T2 construct: expressed in transfected cells; host or cells: HEK293
As to the kind of experiment: Live cell target engagement by NanoBRET competitive probe displacement, AKT1 WT. The class given is binding. The following applies: transfected HEK293 cells, 2 h at 37° C., read-out: AKT1 WT IC50: GeoMean IC50. Here is the method: as §1

A further assay deals with T3, AKT1 E17K (Homo sapiens, UniProt P31749, E17K).
T3 construct: expressed in transfected cells; host or cells: HEK293
As to the kind of experiment: Live cell target engagement by NanoBRET competitive probe displacement, AKT1 E17K. It counts as binding. As to conditions: transfected HEK293 cells, 2 h at 37° C., read-out: AKT1 E17K IC50: GeoMean IC50. As for the experimental part:
as §1

Molecules are shown by their SMILES. Like-named read-outs stand apart in the source and are kept apart here.

T2 sequence (P31749 whole entry): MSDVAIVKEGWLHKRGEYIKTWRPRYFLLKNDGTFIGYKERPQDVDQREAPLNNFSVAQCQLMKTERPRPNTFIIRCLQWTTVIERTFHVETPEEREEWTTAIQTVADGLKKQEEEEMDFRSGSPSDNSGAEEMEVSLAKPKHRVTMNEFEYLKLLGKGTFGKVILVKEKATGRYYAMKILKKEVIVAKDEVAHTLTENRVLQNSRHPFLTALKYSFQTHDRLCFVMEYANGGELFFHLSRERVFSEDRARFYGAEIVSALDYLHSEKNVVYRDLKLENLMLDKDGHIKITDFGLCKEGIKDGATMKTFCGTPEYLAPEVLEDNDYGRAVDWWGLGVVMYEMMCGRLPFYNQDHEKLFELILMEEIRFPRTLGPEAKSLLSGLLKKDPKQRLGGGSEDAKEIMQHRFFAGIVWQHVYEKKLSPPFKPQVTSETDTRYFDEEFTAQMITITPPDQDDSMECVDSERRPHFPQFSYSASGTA
T1 sequence (P31751 whole entry): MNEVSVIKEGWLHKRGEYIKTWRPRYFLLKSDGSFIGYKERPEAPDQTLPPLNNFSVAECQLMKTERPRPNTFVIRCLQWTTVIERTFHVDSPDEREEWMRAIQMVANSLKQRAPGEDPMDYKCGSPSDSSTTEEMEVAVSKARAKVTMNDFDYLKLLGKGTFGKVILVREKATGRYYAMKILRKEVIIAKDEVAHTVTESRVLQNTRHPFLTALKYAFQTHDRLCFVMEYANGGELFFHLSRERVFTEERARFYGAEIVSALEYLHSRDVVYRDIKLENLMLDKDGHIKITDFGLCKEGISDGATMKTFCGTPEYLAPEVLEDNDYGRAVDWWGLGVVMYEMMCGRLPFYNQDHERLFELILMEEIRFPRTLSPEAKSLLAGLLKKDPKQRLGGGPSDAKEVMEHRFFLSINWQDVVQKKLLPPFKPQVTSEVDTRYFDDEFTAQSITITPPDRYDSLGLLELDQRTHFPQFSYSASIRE
T3 sequence (P31749 whole entry E17K): as the sequence (P31749 whole entry) above, with E17K counted along it

Take `COCc1cnn(-c2ccc3nc(-c4cccnc4N)n(-c4ccc5c(c4)CC[C@@H]5NC(=O)c4cc(C=O)c(O)cc4F)c3n2)c1` [Example 152, (S)—N-(5-(2-(2-aminopyridin-3-yl)-5-(4-(methoxymethyl)-1H-pyrazol-1-yl)-3H-imidazo[4,5-b]pyridin-3-yl)-2,3-dihydro-1H-inden-1-yl)-2-fluoro-5-formyl-4-hydroxybenzamide]: the IC50 in assay [1] (Homo sapiens, LAPC4, 72 h) is 0.1 to 2 µM; at AKT2 it was 0.1 to 2 µM; on AKT1 WT, 0.1 to 2 µM; at AKT1 E17K, 0.01 to 0.1 µM.

With `Nc1ncccc1-c1nc2ccc(-n3cccn3)nc2n1-c1ccc2c(c1)CC(F)[C@@H]2NC(=O)c1ccc(O)c(C=O)c1` (single isomer, unassigned) [Example 256, N-[(1R,2R*)-5-[2-(2-aminopyridin-3-yl)-5-(pyrazol-1-yl)imidazo[4,5-b]pyridin-3-yl]-2-fluoro-2,3-dihydro-1H-inden-1-yl]-3-formyl-4-hydroxybenzamide], the IC50 in assay [1] lay in the range of 0.01 to 0.1 µM; at AKT2, 0.1 to 2 µM; at AKT1 WT it was 0.01 to 0.1 µM; at AKT1 E17K it was 0.01 to 0.1 µM.

Take `Cn1cc(-c2ccc3nc(-c4cccnc4N)n(-c4ccc5c(c4)CC[C@@H]5NC(=O)c4ccc(O)c(C=O)c4)c3n2)nn1` [Example 72, (S)—N-(5-(2-(2-aminopyridin-3-yl)-5-(1-methyl-1H-1,2,3-triazol-4-yl)-3H-imidazo[4,5-b]pyridin-3-yl)-2,3-dihydro-1H-inden-1-yl)-3-formyl-4-hydroxybenzamide]: the IC50 is 0.1 to 2 µM in assay [1] (Homo sapiens, LAPC4, 72 h); 0.1 to 2 µM on AKT2; 0.01 to 0.1 µM on AKT1 WT; 0.01 to 0.1 µM on AKT1 E17K.

`CN(C)c1nc2cc(C(=O)N[C@H]3CCc4cc(-n5c(-c6cccnc6N)nc6ccc(-n7cccn7)nc65)ccc43)cc(C=O)c2[nH]1` [Example 175, (S)—N-(5-(2-(2-aminopyridin-3-yl)-5-(1H-pyrazol-1-yl)-3H-imidazo[4,5-b]pyridin-3-yl)-2,3-dihydro-1H-inden-1-yl)-2-(dimethylamino)-7-formyl-1H-benzo[d]imidazole-5-carboxamide]: the IC50 in assay [1] (Homo sapiens, LAPC4, 72 h) was less than 0.01 µM; at AKT2 it was 0.01 to 0.1 µM; on AKT1 WT, less than 0.01 µM; on AKT1 E17K, less than 0.01 µM.

Consider `Nc1ncccc1-c1nc2cc(F)c(-n3cccn3)nc2n1-c1ccc2c(c1)CC[C@@H]2NC(=O)c1ccc(O)c(C=O)c1` [Example 248, (S)—N-(5-(2-(2-aminopyridin-3-yl)-6-fluoro-5-(1H-pyrazol-1-yl)-3H-imidazo[4,5-b]pyridin-3-yl)-2,3-dihydro-1H-inden-1-yl)-3-formyl-4-hydroxybenzamide], for which the IC50 fell in the range of 0.1 to 2 µM in assay [1] (Homo sapiens, LAPC4, 72 h); 0.1 to 2 µM on AKT2; 0.01 to 0.1 µM at AKT1 WT; 0.01 to 0.1 µM on AKT1 E17K.

Regarding `Nc1ncccc1-c1nc2ccc(-c3ccccc3)nc2n1-c1ccc2c(c1)CCC2NCCc1ccc(O)c(C=O)c1` (centres unmarked) [Example 2, 5-(2-((5-(2-(2-aminopyridin-3-yl)-5-phenyl-3H-imidazo[4,5-b]pyridin-3-yl)-2,3-dihydro-1H-inden-1-yl)amino)ethyl)-2-hydroxybenzaldehyde], the IC50 on AKT2 is no less than 2 µM; on AKT1 WT, no less than 2 µM; on AKT1 E17K it was 0.1 to 2 µM.

Regarding `Nc1ncccc1-c1nc2ccc(-c3ccccc3)nc2n1-c1ccc2c(c1)CCC2NC(=O)Cc1ccc(C=O)c(O)c1` (centres unmarked) [Example 6, N-(5-(2-(2-aminopyridin-3-yl)-5-phenyl-3H-imidazo[4,5-b]pyridin-3-yl)-2,3-dihydro-1H-inden-1-yl)-2-(4-formyl-3-hydroxyphenyl)acetamide], the IC50 at AKT2 is 0.1 to 2 µM; at AKT1 WT, 0.01 to 0.1 µM; on AKT1 E17K, 0.01 to 0.1 µM.

As to `Nc1ncccc1-c1nc2ccc(-n3cccn3)nc2n1-c1ccc2c(c1)CC[C@@H]2NC(=O)c1cc(C=O)c(F)cc1F` [Example 188, (S)—N-(5-(2-(2-aminopyridin-3-yl)-5-(1H-pyrazol-1-yl)-3H-imidazo[4,5-b]pyridin-3-yl)-2,3-dihydro-1H-inden-1-yl)-2,4-difluoro-5-formylbenzamide], the results for the IC50 at AKT2, at AKT1 WT and at AKT1 E17K were 0.1 to 2 µM, 0.01 to 0.1 µM and 0.01 to 0.1 µM, respectively.

Regarding `Nc1ncccc1-c1nc2ccc(-c3ccccc3)nc2n1-c1ccc2c(c1)CCC2NCCc1ccc(C=O)c(O)c1` (centres unmarked) [Example 1, 4-(2-((5-(2-(2-aminopyridin-3-yl)-5-phenyl-3H-imidazo[4,5-b]pyridin-3-yl)-2,3-dihydro-1H-inden-1-yl)amino)ethyl)-2-hydroxybenzaldehyde], the IC50 on AKT2 lay in the range of 0.1 to 2 µM; at AKT1 WT, 0.1 to 2 µM; at AKT1 E17K, 0.01 to 0.1 µM.

Turning to `Nc1ncccc1-c1nc2ccc(-n3cccn3)nc2n1-c1ccc2c(c1)CC[C@@H]2n1cnc2c(F)c(O)c(C=O)cc2c1=O` [Example 243, 3-[(1S)-5-[2-(2-aminopyridin-3-yl)-5-(pyrazol-1-yl)imidazo[4,5-b]pyridin-3-yl]-2,3-dihydro-1H-inden-1-yl]-8-fluoro-7-hydroxy-4-oxoquinazoline-6-carbaldehyde], the IC50 in assay [1] (Homo sapiens, LAPC4, 72 h) lay within 0.1 to 2 µM.

As to `Cc1nc2cc(O)c(C=O)cc2c(=O)n1[C@H]1CCc2cc(-n3c(-c4cccnc4N)nc4ccc(-n5cccn5)nc43)ccc21` [Example 249, 3-[(1S)-5-[2-(2-aminopyridin-3-yl)-5-(pyrazol-1-yl)imidazo[4,5-b]pyridin-3-yl]-2,3-dihydro-1H-inden-1-yl]-7-hydroxy-2-methyl-4-oxoquinazoline-6-carbaldehyde], the IC50 in assay [1] (Homo sapiens, LAPC4, 72 h) was no less than 2 µM.

As for `Nc1ncccc1-c1nc2ccc(-c3ccccc3)nc2n1-c1ccc2c(c1)CC[C@H]2NC(=O)c1ccc(O)c(C=O)c1` [Example 7, N-[(1R)-5-[2-(2-aminopyridin-3-yl)-5-phenylimidazo[4,5-b]pyridin-3-yl]-2,3-dihydro-1H-inden-1-yl]-3-formyl-4-hydroxybenzamide], the results for the IC50 on AKT2, at AKT1 WT and on AKT1 E17K were no less than 2 µM, no less than 2 µM and 0.1 to 2 µM, respectively.

Regarding `Nc1ncccc1-c1nc2ccc(-n3cccn3)nc2n1-c1ccc2c(c1)CC(O)C2NC(=O)c1ccc(O)c(C=O)c1` (centres unmarked) [Example 251, N-(5-(2-(2-aminopyridin-3-yl)-5-(1H-pyrazol-1-yl)-3H-imidazo[4,5-b]pyridin-3-yl)-2-hydroxy-2,3-dihydro-1H-inden-1-yl)-3-formyl-4-hydroxybenzamide], the IC50 on AKT2 lay in the range of 0.1 to 2 µM; on AKT1 WT, 0.1 to 2 µM; at AKT1 E17K, 0.01 to 0.1 µM.

As to `CS(=O)(=O)Nc1cc2ncn([C@H]3CCc4cc(-n5c(-c6cccnc6N)nc6ccc(-n7cccn7)nc65)ccc43)c(=O)c2cc1C=O` [Example 244, N-{3-[(1S)-5-[2-(2-aminopyridin-3-yl)-5-(pyrazol-1-yl)imidazo[4,5-b]pyridin-3-yl]-2,3-dihydro-1H-inden-1-yl]-6-formyl-4-oxoquinazolin-7-yl}methanesulfonamide], the IC50 in assay [1] (Homo sapiens, LAPC4, 72 h) lay in the range of 0.1 to 2 µM.

As to `Nc1ncccc1-c1nc2ccc(-c3ccccc3)nc2n1-c1ccc2c(c1)CC[C@@H]2NC(=O)Cc1ccc(C=O)c(O)c1Cl` [Example 9, N-[(1S)-5-[2-(2-aminopyridin-3-yl)-5-phenylimidazo[4,5-b]pyridin-3-yl]-2,3-dihydro-1H-inden-1-yl]-2-(2-chloro-4-formyl-3-hydroxyphenyl)acetamide], the results for the IC50 on AKT2, on AKT1 WT and at AKT1 E17K were 0.1 to 2 µM, 0.01 to 0.1 µM and 0.01 to 0.1 µM, respectively.

`Nc1ncccc1-c1nc2ccc(-c3ccccc3)nc2n1-c1ccc2c(c1)CC[C@@H]2NCCc1ccc(C=O)c(O)c1` [Example 4, 4-(2-{[(1S)-5-[2-(2-aminopyridin-3-yl)-5-phenylimidazo[4,5-b]pyridin-3-yl]-2,3-dihydro-1H-inden-1-yl]amino}ethyl)-2-hydroxybenzaldehyde]: the results for the IC50 at AKT2, at AKT1 WT and on AKT1 E17K were 0.1 to 2 µM, 0.1 to 2 µM and 0.01 to 0.1 µM, respectively.

With `Nc1ncccc1-c1nc2ccc(-n3cccn3)nc2n1-c1ccc2c(c1)CC[C@@H]2NC(=O)c1ccc(F)c(C=O)c1` [Example 191, (S)—N-(5-(2-(2-aminopyridin-3-yl)-5-(1H-pyrazol-1-yl)-3H-imidazo[4,5-b]pyridin-3-yl)-2,3-dihydro-1H-inden-1-yl)-4-fluoro-3-formylbenzamide], the IC50 at AKT2, on AKT1 WT and on AKT1 E17K was 0.01 to 0.1 µM each time.

For `Nc1ncccc1-c1nc2ccc(-c3ccccc3)nc2n1-c1ccc2c(c1)CC[C@H]2NCCc1ccc(C=O)c(O)c1` [Example 3, 4-(2-{[(1R)-5-[2-(2-aminopyridin-3-yl)-5-phenylimidazo[4,5-b]pyridin-3-yl]-2,3-dihydro-1H-inden-1-yl]amino}ethyl)-2-hydroxybenzaldehyde], the IC50 was no less than 2 µM at AKT2, 0.1 to 2 µM on AKT1 WT and 0.01 to 0.1 µM on AKT1 E17K.
